Experimental data reported in ChEMBL document CHEMBL3758163, “Extended structure-activity study of thienopyrimidine-based EGFR inhibitors with evaluation of drug-like properties” (Eur J Med Chem, 2016).
In brackets after ≈: the same amount, converted by molar mass.

Tests used:
[1] = molecular target: Epidermal growth factor receptor (Homo sapiens, UniProt P00533); assay: Inhibition of EGFR (unknown origin) by Z -LYTE assay
[2] = Aqueous solubility of compound in 0.01 M PBS buffer at pH 7.4 after 2 hrs by turbidimetric assay; type: physicochemical
in vitro = conditions: human, Caco-2
Description: Efflux ratio of permeability from basolateral to apical side over apical to basolateral side in human Caco2 cells at 10 uM by LC-MS/MS analysis

[3] = Half-life in human liver microsomes at 3 uM by LC-MS/MS analysis; type: ADME
[4] = Intrinsic clearance in human liver microsomes at 3 uM by LC-MS/MS analysis; type: ADME; conditions: read-out: CLH
Danio rerio [5] = species: Danio rerio; assay: Toxicity in zebrafish embryo assessed as kinked tail; type: organism-based; conditions: in vivo
[6] = Toxicity in zebrafish embryo assessed as survival for 3.5 days; type: organism-based, Danio rerio; conditions: in vivo
[7] = Toxicity in zebrafish embryo assessed as morphological defects for 3.5 days; type: organism-based, Danio rerio
Danio rerio [8] = species: Danio rerio; assay: Toxicity in zebrafish embryo assessed mortality after 50 to 70 hrs; type: organism-based; conditions: in vivo
Danio rerio [9] = assay: Toxicity in zebrafish embryo assessed as cardiac oedema; type: organism-based; conditions: in vivo
Danio rerio [10] = species: Danio rerio; assay: Toxicity in zebrafish embryo assessed as blood circulation defects; type: organism-based; conditions: in vivo
Danio rerio [11] = species: Danio rerio; assay: Toxicity in zebrafish embryo assessed as effect on morphology at <12.5 uM; type: organism-based; conditions: in vivo
Danio rerio [12] = species: Danio rerio; assay: Toxicity in zebrafish embryo assessed mortality measured for 24 hrs; type: organism-based; conditions: in vivo

Epidermal growth factor receptor, sequence (P00533 whole entry): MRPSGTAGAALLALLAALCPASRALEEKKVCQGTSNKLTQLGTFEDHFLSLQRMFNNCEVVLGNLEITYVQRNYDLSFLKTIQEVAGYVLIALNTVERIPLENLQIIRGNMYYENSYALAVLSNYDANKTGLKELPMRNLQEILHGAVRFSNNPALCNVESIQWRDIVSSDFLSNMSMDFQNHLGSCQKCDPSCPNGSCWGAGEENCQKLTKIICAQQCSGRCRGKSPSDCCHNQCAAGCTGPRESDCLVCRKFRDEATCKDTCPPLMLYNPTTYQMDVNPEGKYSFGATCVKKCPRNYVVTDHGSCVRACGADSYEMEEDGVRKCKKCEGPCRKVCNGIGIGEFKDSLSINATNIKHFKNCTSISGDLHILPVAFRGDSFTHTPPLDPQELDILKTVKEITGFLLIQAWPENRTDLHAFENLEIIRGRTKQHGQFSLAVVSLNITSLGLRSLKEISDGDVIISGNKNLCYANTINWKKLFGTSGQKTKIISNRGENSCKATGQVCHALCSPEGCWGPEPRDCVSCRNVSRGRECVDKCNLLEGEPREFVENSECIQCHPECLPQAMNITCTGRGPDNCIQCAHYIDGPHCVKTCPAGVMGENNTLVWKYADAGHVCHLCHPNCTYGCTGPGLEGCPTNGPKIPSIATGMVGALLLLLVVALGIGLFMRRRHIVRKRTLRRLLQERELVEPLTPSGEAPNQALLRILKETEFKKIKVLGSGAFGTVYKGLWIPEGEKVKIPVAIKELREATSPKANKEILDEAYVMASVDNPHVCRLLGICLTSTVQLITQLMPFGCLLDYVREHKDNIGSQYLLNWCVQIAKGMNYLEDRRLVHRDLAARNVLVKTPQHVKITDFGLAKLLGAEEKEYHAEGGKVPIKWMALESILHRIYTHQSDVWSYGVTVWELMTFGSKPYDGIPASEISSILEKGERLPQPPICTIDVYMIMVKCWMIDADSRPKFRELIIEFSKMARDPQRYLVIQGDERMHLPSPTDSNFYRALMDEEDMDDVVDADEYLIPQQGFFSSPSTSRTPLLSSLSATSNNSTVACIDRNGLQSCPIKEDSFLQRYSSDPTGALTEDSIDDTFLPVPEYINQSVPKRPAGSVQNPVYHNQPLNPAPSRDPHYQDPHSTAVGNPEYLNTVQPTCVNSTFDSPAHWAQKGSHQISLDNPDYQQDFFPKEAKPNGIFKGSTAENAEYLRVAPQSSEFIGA

Compound	IC50 [1] [nM]	other results
C[C@@H](Nc1ncnc2sc(-c3cccc(C(=O)NCCN(C)C)c3)cc12)c1ccccc1	0.9	solubility kinetic at 2 h [2]: > 100 µM; efflux ratio at 10 µM (in vitro): 8.9; half-life at 3 µM [3]: 95 min
OCc1ccc(-c2cc3c(Nc4ccccc4)ncnc3s2)cc1	21	–
OCc1ccc(-c2cc3c(NCc4ccccc4)ncnc3s2)cc1	48	–
C[C@@H](Nc1ncnc2sc(-c3cccc(C=O)c3)cc12)c1ccccc1	6	–
COc1cc(C=O)ccc1-c1cc2c(NCc3ccccc3)ncnc2s1	6	–
COc1cccc(OC)c1-c1cc2c(N[C@H](CO)c3ccccc3)ncnc2s1	0.9	microsomal CLint at 3 µM [4]: 41 µL/min/mg; Activity (Danio rerio [5]): Toxic; LC50 at 84 h [6]: 18 µM; EC50 at 3.5 days [7]: 12 µM; Activity (Danio rerio [8]): Toxic; Activity (Danio rerio [9]): Toxic; Activity (Danio rerio [10]): Toxic; half-life at 3 µM [3]: 34 min
C[C@@H](Nc1ncnc2sc(-c3cccc(S(C)(=O)=O)c3)cc12)c1ccccc1	26	–
OC[C@@H](Nc1ncnc2sc(-c3ccccc3)cc12)c1ccccc1	9	–
COc1cc(C(=O)NCCN(C)C)cc(OC)c1-c1cc2c(N[C@H](C)c3ccccc3)ncnc2s1	0.4	microsomal CLint at 3 µM [4]: 9.7 µL/min/mg; LC50 at 84 h [6]: 15 µM; Activity (Danio rerio [11]): Non-toxic; Activity (Danio rerio [12]): Toxic; solubility kinetic at 2 h [2]: 65 µM (≈ 32.9 µg/mL); efflux ratio at 10 µM (in vitro): 40; half-life at 3 µM [3]: 142 min
COc1cc(C=O)ccc1-c1cc2c(Nc3ccc(F)c(Cl)c3)ncnc2s1	5	–
OCc1cccc(-c2cc3c(N[C@H](CO)c4ccccc4)ncnc3s2)c1	3	–
COc1cc(CO)ccc1-c1cc2c(NCc3ccccc3)ncnc2s1	5	–
COc1c(C(=O)NCCN(C)C)cccc1-c1cc2c(N[C@H](C)c3ccccc3)ncnc2s1	3	–
C[C@@H](Nc1ncnc2sc(-c3ccc(S(C)(=O)=O)cc3)cc12)c1ccccc1	41	–

The next lines start with results.

IC50 [1] [nM]	Compound	other results
13	C[C@@H](Nc1ncnc2sc(-c3ccc(CO)cc3F)cc12)c1ccccc1	–
13	COc1cccc(-c2cc3c(N[C@H](C)c4ccccc4)ncnc3s2)c1OC	–
6	COc1cc(F)ccc1-c1cc2c(N[C@H](C)c3ccccc3)ncnc2s1	–
0.5	COc1cc(C(=O)NCCN(C)C)ccc1-c1cc2c(N[C@H](C)c3ccccc3)ncnc2s1	microsomal CLint at 3 µM [4]: 6.1 µL/min/mg; solubility kinetic at 2 h [2]: > 100 µM; efflux ratio at 10 µM (in vitro): 18; half-life at 3 µM [3]: 227 min
1.5	COc1c(CO)cccc1-c1cc2c(N[C@H](C)c3ccccc3)ncnc2s1	–
8	C[C@@H](Nc1ncnc2sc(-c3cccc(C(=O)O)c3)cc12)c1ccccc1	–
7	COC(=O)c1ccc(OC)c(-c2cc3c(N[C@H](C)c4ccccc4)ncnc3s2)c1	–
19	C[C@@H](Nc1ncnc2sc(-c3ccc(C(=O)O)cc3)cc12)c1ccccc1	–
9	COC(=O)c1cccc(-c2cc3c(N[C@H](C)c4ccccc4)ncnc3s2)c1OC	–
59	C[C@@H](Nc1ncnc2sc(-c3ccc(C=O)cc3F)cc12)c1ccccc1	–
2	COc1cc(C(N)=O)ccc1-c1cc2c(N[C@H](C)c3ccccc3)ncnc2s1	–
4	COC(=O)c1cc(OC)c(-c2cc3c(N[C@H](C)c4ccccc4)ncnc3s2)c(OC)c1	–
3	COc1ccc(C=O)cc1-c1cc2c(N[C@H](C)c3ccccc3)ncnc2s1	–
2	COc1cccc(OC)c1-c1cc2c(N[C@H](C)c3ccccc3)ncnc2s1	–
5	C[C@@H](Nc1ncnc2sc(-c3cccc(C(N)=O)c3)cc12)c1ccccc1	–
21	COc1c(C=O)cccc1-c1cc2c(N[C@H](C)c3ccccc3)ncnc2s1	–
7	C[C@@H](Nc1ncnc2sc(-c3ccc(C(N)=O)cc3)cc12)c1ccccc1	–
20	COC(=O)c1ccc(-c2cc3c(N[C@H](C)c4ccccc4)ncnc3s2)c(OC)c1	–
5	COc1ccc(CO)cc1-c1cc2c(N[C@H](C)c3ccccc3)ncnc2s1	–
